Laboratory results taken from patent US6613765B1, “Use of NK-1 receptor antagonists for treating major depressive disorders” (Merck Sharp & Dohme Limited, priority 1996, dated 2003).

Columns and labels:
[1] = tested on: separation-induced vocalisations by guinea-pig pups; test: Separation-induced vocalisation in guinea-pig pups; format: in vivo; details: p.o.
Procedure: ASSAY 4: Separation-induced Vocalisation
On test days each pup receives an oral dose or an s.c. or i.p. injection of test compound or vehicle and is then immediately returned to the home cage with its mother and siblings for 30 to 60 minutes (or for up to 4 hours following an oral dose, dependent upon the oral pharmacokinetics of the test compound) before social isolation for 15 minutes as described above. […] Between 6 and 8 animals receive each test compound at each dose tested.

human NK-1 receptor = target: T1, human NK-1 receptor (Homo sapiens, UniProt P25103); test: NK-1 receptor binding (125I-Tyr8-substance P, intact CHO cells); details: CHO cells expressing the human NK-1 receptor
T1 construct: expressed in transfected cells; host or cells: CHO (Chinese hamster ovary) cells, intact
T1 sequence (P25103 whole entry): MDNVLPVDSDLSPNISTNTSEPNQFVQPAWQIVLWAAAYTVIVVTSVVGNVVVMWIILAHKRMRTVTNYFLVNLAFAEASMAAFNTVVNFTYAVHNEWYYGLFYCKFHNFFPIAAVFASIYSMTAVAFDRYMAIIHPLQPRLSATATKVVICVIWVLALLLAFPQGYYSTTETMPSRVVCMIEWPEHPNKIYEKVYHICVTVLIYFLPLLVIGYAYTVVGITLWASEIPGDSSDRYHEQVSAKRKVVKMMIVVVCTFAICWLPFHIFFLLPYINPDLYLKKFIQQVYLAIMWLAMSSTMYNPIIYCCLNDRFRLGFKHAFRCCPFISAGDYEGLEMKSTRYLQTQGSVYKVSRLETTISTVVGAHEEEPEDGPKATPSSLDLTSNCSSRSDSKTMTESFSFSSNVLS
Procedure: NK-1 receptor binding assays are performed in intact Chinese hamster ovary (CHO) cells expressing the human NK-1 receptor using a modification of the assay conditions described by Cascieri et al, J. Pharmacol. Exp. Ther., 1992, 42, 458. Typically, the receptor is expressed at a level of 3×10^5 receptors per cell. Cells are grown in monolayer culture, detached from the plate with enzyme-free dissociation solution (Speciality Media Inc.), and washed prior to use in the assay. ^125I-Tyr^8-substance P (0.1 nM, 2000 Ci/mmol; New England Nuclear) is incubated in the presence or absence of test compounds (dissolved in 5 μl dimethylsulphoxide, DMSO) with 5×10^4 CHO cells. Ligand binding is performed in 0.25 ml of 50 mM Tris-HCl, pH 7.5, containing 5 mM MnCl2, 150 mM NaCl, 0.02% bovine serum albumin (Sigma), 50 μg/ml chymostatin (Peninsula), 0.1 nM phenylmethylsulphonyl fluoride, 2 μg/ml pepstatin, 2 μg/ml leupeptin and 2.8 μg/ml furoyl saccharine. The incubation proceeds at room temperature until equilibrium is achieved (>40 minutes) and the receptor-ligand complex is harvested by filtration over GF/C filters pre-soaked in 0.1% polyethylenimine using a Tomtek 96-well harvester. Non-specific binding is determined using excess substance P (1 μM and represents <10% of total binding.

[2] = tested on: foot tapping in gerbils induced by central injection of an NK1 agonist; test: Gerbil foot-tapping induced by central infusion of NK-1 receptor agonist GR73632; format: in vivo, Mongolian gerbils; details: i.v.
From the text: ASSAY 2: Gerbil Foot-tapping
CNS-penetrant NK-1 receptor antagonists for use in the present invention can be identified by their ability to inhibit foot tapping in gerbils induced by anxiogenic agents (such as pentagastrin) or central infusion of NK-1 receptor agonists such as GR73632, or caused by aversive stimulation such as foot shock or single housing, based on the method of Rupniak & Williams, Eur. J. Pharmacol., 1994, 265, 179.
Male or female Mongolian gerbils (35-70 g) are anaesthetised by inhalation of an isoflurane/oxygen mixture to permit exposure of the jugular vein in order to permit administration of test compounds or vehicle in an injection volume of 5 ml/kg i.v. Alternatively, test compounds may be administered orally or by subcutaneous or intraperitoneal routes. A skin incision is then made in the midline of the scalp to expose the skull. […]

Row | melting point [°C] | IC50 (human NK-1 receptor) [nM] | SMILES | guinea-pig vocalisation (4 hr. pre-treatment): ID50 [1] | gerbil foot-tapping (5 mins.): ID50 ([2]; 5 mins.) | gerbil foot-tapping (24 hrs.): ID60 ([2]; 24 hrs. prior to agonist challenge)
1 | 214 to 216 | – | Cl.FC(F)(F)Oc1ccc(OC2CC2)c([C@H]2CO[C@]3(CCCN[C@H]3c3ccccc3)C2)c1 | – | – | –
2 | – | 0.12 | OC[C@@H](O[C@H]1OCCN(Cc2nc[nH]n2)[C@H]1c1ccc(F)cc1)c1cc(C(F)(F)F)cc(C(F)(F)F)c1 [2-(R)-(1-(S)-(3,5-bis(trifluoromethyl)phenyl)-2-hydroxyethoxy)-3-(S)-(4-fluorophenyl)-4-(1,2,4-triazol-3-yl)methylmorpholine] | ID50 = 0.91 mg/kg p.o. | ID50 = 0.38 mg/kg i.v. | ID60 = 2.2 mg/kg i.v.
